Toxic doses and inconclusive results are not listed.
Test system: L1210 leukemia ip in BDF1 mice, survival T/C
Test: NCI In Vivo Anticancer Drug Screen. Data for tumor model L1210 Leukemia (intraperitoneal) in B6D2F1 (BDF1) mice
Conditions: endpoint: mean survival time, higher = longer survival
Summary of the method: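 In this screen, tumor-bearing mice given compound are compared to those given vehicle, and their survival values are reported as a treated-to-control quotient.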

[1] = dose: 100.0 mg/kg/injection, schedule: Q04DX003 (ip), vehicle: saline with Tween-80
[2] = dose: 75.0 mg/kg/injection, schedule: Q01DX001 (ip), vehicle: saline
[3] = dose: 150.0 mg/kg/injection, schedule: Q01DX001 (ip), vehicle: saline
[4] = dose: 100.0 mg/kg/injection, schedule: Q01DX001 (ip), vehicle: carboxymethylcellulose (CMC)
[5] = dose: 200.0 mg/kg/injection, schedule: Q01DX001 (ip), vehicle: carboxymethylcellulose (CMC)
[6] = dose: 25.0 mg/kg/injection, schedule: Q01DX009 (ip), vehicle: saline with Tween-80
[7] = dose: 100.0 mg/kg/injection, schedule: Q01DX001 (ip), vehicle: saline with Tween-80
[8] = dose: 200.0 mg/kg/injection, schedule: Q01DX001 (ip), vehicle: saline with Tween-80
[9] = dose: 400.0 mg/kg/injection, schedule: Q01DX001 (ip), vehicle: saline with Tween-80
[10] = dose: 100.0 mg/kg/injection, schedule: Q01DX001 (ip), vehicle: saline
[11] = dose: 200.0 mg/kg/injection, schedule: Q01DX001 (ip), vehicle: saline
[12] = dose: 400.0 mg/kg/injection, schedule: Q01DX001 (ip), vehicle: saline

CC1(C)C(=O)C(C)(C)C1=NO
T/C (dose: 100.0 mg/kg/injection, schedule: Q04DX003 (ip), vehicle: saline): 103 % of control
T/C (dose: 200.0 mg/kg/injection, schedule: Q04DX003 (ip), vehicle: saline): 95 % of control
T/C (dose: 400.0 mg/kg/injection, schedule: Q04DX003 (ip), vehicle: saline): 103 % of control

OC(/C=C/c1ccccc1)(c1ccccc1)c1ccccc1
T/C (dose: 100.0 mg/kg/injection, schedule: Q04DX003 (ip), vehicle: Klucel (hydroxypropylcellulose) (HPC)): 94 % of control
T/C (dose: 200.0 mg/kg/injection, schedule: Q04DX003 (ip), vehicle: Klucel (hydroxypropylcellulose) (HPC)): 93 % of control
T/C (dose: 400.0 mg/kg/injection, schedule: Q04DX003 (ip), vehicle: Klucel (hydroxypropylcellulose) (HPC)): 96 % of control

c1ccc(C(c2ccccc2)n2ccnc2)cc1
T/C (dose: 37.5 mg/kg/injection, schedule: Q04DX003 (ip), vehicle: saline): 94 % of control
T/C (dose: 75.0 mg/kg/injection, schedule: Q04DX003 (ip), vehicle: saline): 102 % of control
T/C (dose: 150.0 mg/kg/injection, schedule: Q04DX003 (ip), vehicle: saline): 105 % of control

O=C(O)C(=O)c1ccc(-c2ccccc2)cc1
T/C (dose: 5.0 mg/kg/injection, schedule: Q01DX Z (ip), vehicle: carboxymethylcellulose (CMC)): 102 % of control
T/C (dose: 10.0 mg/kg/injection, schedule: Q01DX Z (ip), vehicle: carboxymethylcellulose (CMC)): 100 % of control
T/C (dose: 20.0 mg/kg/injection, schedule: Q01DX Z (ip), vehicle: carboxymethylcellulose (CMC)): 94 % of control
T/C (dose: 40.0 mg/kg/injection, schedule: Q01DX Z (ip), vehicle: carboxymethylcellulose (CMC)): 100 % of control
T/C (dose: 75.0 mg/kg/injection, schedule: Q01DX001 (ip), vehicle: carboxymethylcellulose (CMC)): 101 % of control
T/C (dose: 150.0 mg/kg/injection, schedule: Q01DX001 (ip), vehicle: carboxymethylcellulose (CMC)): 101 % of control

CNCCC=C1c2ccccc2CCc2ccccc21
T/C (dose: 3.12 mg/kg/injection, schedule: Q01DX009 (ip), vehicle: saline): 101 % of control
T/C (dose: 6.25 mg/kg/injection, schedule: Q01DX009 (ip), vehicle: saline): 101 % of control
T/C (dose: 12.5 mg/kg/injection, schedule: Q01DX009 (ip), vehicle: saline): 106 % of control
T/C (dose: 25.0 mg/kg/injection, schedule: Q01DX009 (ip), vehicle: saline): 106 % of control
T/C (dose: 25.0 mg/kg/injection, schedule: Q04DX003 (ip), vehicle: saline): 96 % of control
T/C (dose: 50.0 mg/kg/injection, schedule: Q01DX009 (ip), vehicle: saline): 117 % of control
T/C (dose: 50.0 mg/kg/injection, schedule: Q04DX003 (ip), vehicle: saline): 96 % of control

C=C(c1cn(C(C)=O)c2ccccc12)c1cn(C(C)=O)c2ccccc12
T/C [1]: 95 % of control

Cc1cc(C)c(C(=O)OCCN(C)C)c(C)c1
T/C [2]: 110 % of control
T/C [3]: 98 % of control

COC(=O)c1sc2ccccc2c1C
T/C [4]: 104 % of control
T/C [5]: 98 % of control
T/C (dose: 400.0 mg/kg/injection, schedule: Q01DX001 (ip), vehicle: carboxymethylcellulose (CMC)): 98 % of control

Oc1ccccc1OCCOCCOc1ccccc1O
T/C (dose: 100.0 mg/kg/injection, schedule: Q04DX002 (ip), vehicle: other): 90 % of control

CCOC(=O)Nc1cc(NC(C)CCCN(CC)CC)nc2nc(-c3ccc(Cl)cc3)cnc12 (configuration not stated)
T/C (dose: 9.5 mg/kg/injection, schedule: Q01DX001 (ip), vehicle: saline): 100 % of control
T/C (dose: 19.0 mg/kg/injection, schedule: Q01DX001 (ip), vehicle: saline): 102 % of control
T/C (dose: 38.0 mg/kg/injection, schedule: Q01DX001 (ip), vehicle: saline): 89 % of control
T/C [2]: 100 % of control

CCCCCCCCCC[n+]1cccc(C(N)=O)c1
T/C (dose: 5.0 mg/kg/injection, schedule: Q04DX003 (ip), vehicle: saline): 93 % of control
T/C (dose: 10.0 mg/kg/injection, schedule: Q04DX003 (ip), vehicle: saline): 96 % of control
T/C (dose: 20.0 mg/kg/injection, schedule: Q04DX003 (ip), vehicle: saline): 96 % of control

CCCCCCCCCCCCCCCc1ccc(C(=O)C[n+]2ccccc2)cc1
T/C (dose: 16.5 mg/kg/injection, schedule: Q01DX009 (ip), vehicle: saline with Tween-80): 114 % of control
T/C [6]: 120 % of control

Cc1cc2c(cc1C)C1(c3ccccc3)OC1(c1ccccc1)C2=O (configuration not stated)
T/C [7]: 95 % of control
T/C [8]: 88 % of control
T/C [9]: 92 % of control

CCC1CC(O)c2ccccc2O1 (configuration not stated)
T/C (dose: 100.0 mg/kg/injection, schedule: Q01DX001 (ip), vehicle: other): 103 % of control
T/C (dose: 200.0 mg/kg/injection, schedule: Q01DX001 (ip), vehicle: other): 95 % of control
T/C (dose: 400.0 mg/kg/injection, schedule: Q01DX001 (ip), vehicle: other): 91 % of control

N#CC1(Nc2ccc(S(N)(=O)=O)cc2)CCCC1
T/C (dose: 50.0 mg/kg/injection, schedule: Q01DX001 (ip), vehicle: carboxymethylcellulose (CMC)): 95 % of control
T/C [4]: 93 % of control
T/C [5]: 98 % of control

O=[N+]([O-])c1cccc(C=Nc2cc(Cl)ccc2Cl)c1
T/C (dose: 75.0 mg/kg/injection, schedule: Q04DX003 (ip), vehicle: Klucel (hydroxypropylcellulose) (HPC)): 106 % of control
T/C (dose: 100.0 mg/kg/injection, schedule: Q01DX001 (ip), vehicle: Klucel (hydroxypropylcellulose) (HPC)): 101 % of control
T/C (dose: 150.0 mg/kg/injection, schedule: Q04DX003 (ip), vehicle: Klucel (hydroxypropylcellulose) (HPC)): 95 % of control
T/C (dose: 200.0 mg/kg/injection, schedule: Q01DX001 (ip), vehicle: Klucel (hydroxypropylcellulose) (HPC)): 107 % of control
T/C (dose: 300.0 mg/kg/injection, schedule: Q04DX003 (ip), vehicle: Klucel (hydroxypropylcellulose) (HPC)): 98 % of control
T/C (dose: 400.0 mg/kg/injection, schedule: Q01DX001 (ip), vehicle: Klucel (hydroxypropylcellulose) (HPC)): 102 % of control

CN(O)CC(=O)O
T/C [10]: 95 % of control
T/C [11]: 98 % of control
T/C [12]: 97 % of control

C/C=C(\Br)C(=O)Nc1ccc(OCC)cc1
T/C [10]: 100 % of control
T/C [11]: 105 % of control

COc1ccc(C)cc1NC(=O)c1cccc(F)c1
T/C (dose: 100.0 mg/kg/injection, schedule: Q01DX009 (ip), vehicle: Klucel (hydroxypropylcellulose) (HPC)): 106 % of control
T/C (dose: 200.0 mg/kg/injection, schedule: Q01DX009 (ip), vehicle: Klucel (hydroxypropylcellulose) (HPC)): 101 % of control
T/C (dose: 400.0 mg/kg/injection, schedule: Q01DX009 (ip), vehicle: Klucel (hydroxypropylcellulose) (HPC)): 97 % of control

FC(F)(F)c1cccc(-c2nc3nc(Cl)c(Cl)nc3[nH]2)c1
T/C (dose: 12.5 mg/kg/injection, schedule: Q01DX009 (ip), vehicle: saline with Tween-80): 93 % of control
T/C [6]: 98 % of control
T/C (dose: 50.0 mg/kg/injection, schedule: Q01DX009 (ip), vehicle: saline with Tween-80): 90 % of control

C/C=C/CC1(CC)C(=O)NC(=S)NC1=O
T/C [2]: 107 % of control
T/C [3]: 113 % of control

CC(C)CCCC(C)C1CCC2C3CCC(CCO)C(C)(CCO)C3CCC12C (configuration not stated)
T/C [7]: 97 % of control
T/C [8]: 92 % of control
T/C [9]: 94 % of control

Cc1ccc(N=Cc2cc(Cl)cc(Cl)c2O)cc1.Cc1ccc(N=Cc2cc(Cl)cc(Cl)c2O)cc1.[Co]
T/C [1]: 104 % of control
T/C (dose: 200.0 mg/kg/injection, schedule: Q04DX003 (ip), vehicle: saline with Tween-80): 100 % of control
T/C (dose: 400.0 mg/kg/injection, schedule: Q04DX003 (ip), vehicle: saline with Tween-80): 114 % of control

c1cc[c]([Sn]([c]2ccccc2)[c]2ccccc2)cc1.c1ccc([Si](c2ccccc2)c2ccccc2)cc1
T/C (dose: 64.0 mg/kg/injection, schedule: Q04DX002 (ip), vehicle: saline with Tween-80): 86 % of control
T/C (dose: 160.0 mg/kg/injection, schedule: Q04DX002 (ip), vehicle: saline with Tween-80): 86 % of control
T/C (dose: 400.0 mg/kg/injection, schedule: Q04DX002 (ip), vehicle: saline with Tween-80): 86 % of control

CCCC(C)NCCOC(=O)Nc1ccccc1 (configuration not stated)
T/C [2]: 91 % of control
T/C [3]: 101 % of control

Oc1ccccc1/C=N/c1nc2ccc(Cl)cc2s1.Oc1ccccc1/C=N/c1nc2ccc(Cl)cc2s1.[Zn]
T/C [10]: 90 % of control

C=CC1=CC(=O)OC1=O
T/C (dose: 10.0 mg/kg/injection, schedule: Q01DX001 (ip), vehicle: saline): 88 % of control

CCN(CC)CCOC(=O)c1ccccc1S(N)(=O)=O
T/C [10]: 104 % of control
T/C [11]: 101 % of control
T/C [12]: 98 % of control
